Measured values reported in patent US6583172B1, “Anticonvulsant derivatives useful in treating chronic neurodegenerative disorders” (priority 1999, dated 2003).
Where no end group is shown, it is not given here.

What was measured:
rat hippocampal cells = experiment: Neurite outgrowth in rat hippocampal cell cultures, MAP-2 immunofluorescence; format: cell-based; details: seven days in culture, concentrations ranging from 100 nM to 100 μM, P<0.05
Protocol: In studies in vitro, cultures of rat hippocampal and cerebral cortical cells were established from embryonic day 18 pups. The cells were grown in culture wells ([…]), or the neurotrophic factors BDNF (brain-derived neurotrophic, 10 ng) and α-MSH (alpha-melanocyte stimulating hormone, 50 nM), or vehicle (isotonic saline). Each compound was added to the culture medium in a specified set of wells at the time the cells were plated and then again four days later when the culture media was removed and replaced with fresh media. On the seventh day in culture, the cells were treated with formalin, a tissue fixative. Subsequently, the cells were treated with a fluorescein-labeled antibody specific for microtubule associated protein-2 (MAP-2), a selective marker for dendritic processes. The amount of fluorescein-labeled antibody bound to MAP-2 (FITC signal) in each well was analytically determined. This information was then used to calculate the relative degree of neurite outgrowth for the cells in each well. […] FIG. 1 is a bar graph illustrating the effects of topiramate, BDNF,α-MSH and GPI on neurite outgrowth in rat hippocampal cell cultures, as measured by MAP-2 immunofluorescence. […]

[1] = test system: rat cerebral cortical cells; experiment: Neurite outgrowth in rat cerebral cortical cell cultures, MAP-2 immunofluorescence; format: cell-based; details: p<0.05
Protocol: In studies in vitro, cultures of rat hippocampal and cerebral cortical cells were established from embryonic day 18 pups. The cells were grown in culture wells (plates) for seven days in the presence of various concentrations of topiramate ([…]), or the neurotrophic factors BDNF (brain-derived neurotrophic, 10 ng) and α-MSH (alpha-melanocyte stimulating hormone, 50 nM), or vehicle (isotonic saline). Each compound was added to the culture medium in a specified set of wells at the time the cells were plated and then again four days later when the culture media was removed and replaced with fresh media. On the seventh day in culture, the cells were treated with formalin, a tissue fixative. Subsequently, the cells were treated with a fluorescein-labeled antibody specific for microtubule associated protein-2 (MAP-2), a selective marker for dendritic processes. The amount of fluorescein-labeled antibody bound to MAP-2 (FITC signal) in each well was analytically determined. This information was then used to calculate the relative degree of neurite outgrowth for the cells in each well. […] FIG. 2 is a bar graph illustrating the effects of topiramate, BDNF,α-MSH and GPI on neurite outgrowth in rat cerebral cortical cell cultures, as measured by MAP-2 immunofluorescence. […]

rat facial nerve = experiment: Rat facial nerve compression model of peripheral nerve injury, restoration of whisker movement; format: in vivo
Protocol: In the study in vivo, topiramate was evaluated in a rat facial nerve compression model of peripheral nerve injury. Rats were anesthetized, their skin and muscle excised to visualize the facial nerve. The nerve was injured near the stylom by compression with forceps. The wound was sutured and the rat allowed to recover before compound administration. The rats were divided into three groups: vehicle-treated, topiramate-treated (p.o., 20 mg/kg) and α-MSH-treated (s.c., 1 mg/kg). Compounds were administered twice daily for 14 days post-surgery. Facial nerve compression causes paralysis of the whisker muscle ipsilateral to the injury site. Restoration of whisker movement (lesioned versus non-lesioned side) was monitored daily for 14 days. Spontaneous recovery of whisker movement was detected as early as 10 days post-surgery with full recovery achieved by 13 days.
FIG. 3 is a line graph illustrating the effects of topiramate and α-MSH on the restoration of facial nerve function in rats, as measured by the rate whisker movement. The total rate of whisker movement on the side that the facial nerve was not injured was assigned a value of 100. Whisker movement on the side of the injured nerve is presented as a percent ±SEM of the whisker movement on the non-injured side. The rate of whisker movement was monitored visually by a skilled observer blinded to the treatment each rat received.

[2] = test system: simple and complex partial seizures and secondarily generalized seizures; details: human epilepsy; cited from earlier work
[3] = test system: rodent models of epilepsy; details: several rodent models of epilepsy; cited from earlier work
[4] = test system: animal model of kindled epilepsy; details: cited from earlier work

CC1(C)O[C@@H]2[C@@H](CO[C@@]3(COS(N)(=O)=O)OC(C)(C)O[C@@H]23)O1 [topiramate, 2,3:4,5-bis-O-(1-methylethylidene)-β-D-fructopyranose sulfamate]
increase in neurite outgrowth (FITC signal, MAP-2) versus vehicle (rat hippocampal cells): significantly higher
neurite outgrowth ([1]; 100 nM): 119 % of control
neurite outgrowth ([1]; 10 μM): 119 % of control
whisker movement recovery, day 11 (rat facial nerve; p.o., 20 mg/kg twice daily, day 11 post-surgery, vehicle=19%, p<0.001): 60%
whisker movement recovery, day 12 (rat facial nerve; p.o., 20 mg/kg twice daily, day 12 post-surgery, vehicle=68%, p<0.01): 92%
efficacy in treating seizures in clinical trials [2]: effective as adjunctive therapy or as monotherapy
block of seizures [3]: effectively block seizures
block of seizures [4]: effectively block seizures

α-MSH: alpha-melanocyte stimulating hormone, neurotrophic factor used as comparator (SYSMEHFRWGKPV; ends and bridges not checked; UniProt P01189 138-150, looked up)
increase in whisker movement recovery versus vehicle, days 11 and 12 (rat facial nerve; s.c., 1 mg/kg twice daily, days 11 and 12 post-surgery): smaller, statistically nonsignificant increase
